How the values were obtained:
[1] = Log P of GRAS amphiphiles; type: physicochemical; settings: GRAS amphiphile alone
Excerpt: (log P is the partition coefficient of a molecule between an aqueous and lipophilic phases, usually octanol and water; commonly used as a measure of lipophilicity of a compound.)

[2] = In vitro release of L-006235 from SP and SP-DOTAP hydrogel (dialysis, HPLC); type: physicochemical; settings: from hydrogel in PBS at 37° C.; in 7 days
Method: SP-DOTAP gel was assayed for its ability to retain the encapsulated Cathepsin-K inhibitor, L-006235, loaded at 10% (w/w). In vitro release of L-006235 from SP-only hydrogel and from SP-DOTAP hydrogel was evaluated in PBS at 37° C. Drug-loaded hydrogels (200 μL, 10 mg drug/mL) further suspended in PBS (800 μl) were placed in dialysis tubing (8-10 kD molecular weight cut-off, Spectrum Labs). The dialysis bags filled with hydrogel in the suspension medium were placed in a 40 mL sink medium (PBS), and incubated at 37° C. with a shaking speed of 150 rpm. At each time point, an aliquot (1 ml) from the sink medium was removed and replenished with the same volume of fresh PBS to ensure constant sink conditions. Aliquots were lyophilized and dissolved in 250 μL methanol, followed by high performance liquid chromatography (HPLC) analysis of the drug amount.

Molecule	logP ([1]; aqueous and lipophilic phases, usually octanol and water, Table 1)	cumulative release of L-006235 [2]	Log P ([1]; Table 1)	Log P ([1]; Table 2)
sucrose palmitate [SP]	–	–	0.64	0.64
sucrose stearate [SS]	–	–	1.416	–
triglycerol monostearate [TG18]	–	–	3.899	3.899

The next lines start with results.

logP ([1]; aqueous and lipophilic phases, usually octanol and water, Table 1)	cumulative release of L-006235 [2]	Log P ([1]; Table 1)	Molecule	Log P ([1]; Table 2)
4.62	–	–	CCCCCCCCCCCCCCCC(=O)OC[C@H](O)[C@H]1OC(=O)C(O)=C1O [AP, ascorbyl palmitate]	–
–	less than 10%	–	CN1CCN(c2nc(-c3ccc(C(=O)NC4(C(=O)NCC#N)CCCCC4)cc3)cs2)CC1 [L-006235]	–
